In patent US8206983B2, “In vitro methods for the induction and maintenance of plant cell lines as single suspension cells with intact cell walls” (Dow AgroSciences, LLC., priority 2006, dated 2012):

Legend:
NT1 suspension cells = assay: Effects of colchicine on growth of NT1 suspension cells; assay type: cell-based, Nicotiana tabacum; conditions: 1 mM
Excerpt: (§1) BY2 suspension-cultured cells were obtained from Japan tobacco and maintained in LSBY2 medium in a 7 day cycle. Jimsonweed suspension and Pettite Havana tobacco suspensions were initiated from callus initiated at DAS and Xanthi suspensions were procured as a sample from Professor Jack Widholm from UIUC, IL. JT-NT1 suspension cells, obtained from Washington University that are maintained in NT1B medium in 7 day cycle were used only for the pectin degradation enzyme study to separate the cells into single cells. The cells were cultured in shake flasks at 25-28° C. in dark on orbital shakers at 150 rpm. […] The NT-1 cell line is widely used and readily available; though, any tobacco suspension cell line is consistent with the practice of the invention. […]
(§2) Cell expansion and separation were observed by light microscopy (with Nomarski and dark field optics). Spherical cells and single cells were counted by using a hemacytometer to determine the degree of cell expansion and separation, respectively. Cell numbers in aggregates were determined by treating with 5% (wt/vol) chromium trioxide for 16 hr and counting cells (Henshaw et. al, 1966). Cell viability was determined by staining cells (Yokoyama et. al, 1997) with fluorescein diacetate (FDA) and propidium iodide (PI) using a fluorescent microscope (Zeiss Photomicroscope). […]

BY2 suspension cells = assay: Effects of colchicine on growth and cell separation of BY2 suspension cells; assay type: cell-based, tobacco
Excerpt: BY2 suspension-cultured cells were obtained from Japan tobacco and maintained in LSBY2 medium in a 7 day cycle. Jimsonweed suspension and Pettite Havana tobacco suspensions were initiated from callus initiated at DAS and Xanthi suspensions were procured as a sample from Professor Jack Widholm from UIUC, IL. JT-NT1 suspension cells, obtained from Washington University that are maintained in NT1B medium in 7 day cycle were used only for the pectin degradation enzyme study to separate the cells into single cells. The cells were cultured in shake flasks at 25-28° C. in dark on orbital shakers at 150 rpm. […] Stock concentrations of both the tubulin polymerization inhibitors used in this investigation were dissolved in DMSO to prepare a 0.5 M stock solution. The concentration tested for the pectinase and pectolyase enzymes were in the range of 0.0005% to 0.005%. The tobacco suspension cell lines NT-1 and BY-2, for example, are suitable for the practice of the present invention. BY-2 cells are commercially available and are available according to Nagata et al, for example (Nagata, T., Nemoto, Y., and Hasezawa, S. [1992], Tobacco BY-2 cell line as the “HeLa” cell in the cell biology of higher plants. Int. Rev. Cytol. 132: 1-30). NT-1 cells were originally developed from Nicotiana tabacum L. cv. bright yellow 2. The NT-1 cell line is widely used and readily available; though, any tobacco suspension cell line is consistent with the practice of the invention. It is worth noting that the origins of the NT-1 cell line are unclear. Moreover, the cell line appears variable and is prone to change in response to culture conditions. NT-1 cells suitable for use in the examples below are available from the American Type Culture Collection under accession number ATCC No. 74840. See also U.S. Pat. No. 6,140,075.
as §2, with “Photomicroscope). In order to determine the presence of the cell wall in this single cell cultures optical brightener was used. Calcafluor obtained from Sigma, which is a specific fluorescent dye for cellulose is used in this study, and the cellulose-Calcafluor complexing was observed by fluorescence microscopy (Zeiss Photomicroscope).” for “Photomicroscope).”

PH suspension cells = assay: Recovery of Petite Havana suspension cells after DAS-PMTI-1 treatment; assay type: cell-based, tobacco; conditions: after 7 days at 0.5 mM; after 2 weeks
Excerpt: as §1, §2

Tobacco BY2 suspension = assay: BY2 single cell production with diphenylpyrazole; assay type: cell-based
Method: Production of GFP expressing single cells. Single cells were produced by adding 1 uM concentration of the compound DDP (diphenylpyrazole) during the initiation of the 7 d culture cycle in the LSBY2-Gly-B15 medium along with the addition of 0.5 ml Pack Cell Volume (PCV) of GFP expressing suspension aggregates at the stationary phase. Alternately, a 25-ml of suspension aggregates were transferred to a 25-ml of fresh LSBY2-Gly-B15 suspension medium by adding 50 ul of […] diphenylpyrazole stock solution dissolved in DMSO to provide a 1 uM final concentration in the suspension. Thus single cells could be produced in a much shorter cycle of only 3.5 days. The LSBY215 medium always contain 15 mg/l glufosinate ammonium for selection
Initiation of single cells in preparation for plastid transformation. Four milliliters of Tobacco BY2 suspension (at the stationary phase growth maintained on a 7-d cycle) was added to 26 mL of fresh medium that composed of either Medium A [LS salts (PhytoTechnology Laboratories, L689), 120 g/L sucrose, 1 mg/L nicotinic acid, 1 mg/L pyridoxine HCl, 10 mg/L thiamine HCl, and 20 nM diphenylpyrazole (DPP)] or Medium B [LS salts, 120 g/L sucrose, 1 mg/L nicotinic acid, 1 mg/L pyridoxine HCl, 10 mg/L thiamine HCl, 2.5 mg/L benzylaminopurine (BAP) and 20 nM DPP] contained in a 125 mL shake flask with a foam stopper. […]

BY2 cells = assay: Single cell production by MTI in BY2 cells in glycerol medium; assay type: cell-based, tobacco; conditions: glycerol as total carbon source
Method: The effects of Microtubule inhibitors (MTI) on tobacco cell growth in suspension culture were examined. Day seven stationary phase cells (1 ml) were transferred to medium (50 ml) in 250 ml shake flasks (Bokros et al., 1993) containing different concentrations (25 to 1000 nM) of MTI and were grown in cultures for 7 days in dark at 25° C. Both the control and MTI-containing flasks contained a final concentration of 0.5-0.1% (v/v) DMSO. The growth of these chemicals was evaluated in EP12 medium for BY2 cells and NT1B medium for BTI-NT1 cells were the carbon source is substituted with 3% glycerol. The response of these cells was compared with the same medium composition but with 3% sucrose as the Carbon source.

## COc1cc2c(c(OC)c1OC)-c1ccc(OC)c(=O)cc1[C@@H](NC(C)=O)CC2 [Colchicine]
NT1 suspension cells
  reduction in growth: ~50%
BY2 suspension cells; 1 mM, 7 days
  single suspension cells: high degree of single suspension cells
BY2 suspension cells; 1 mM, after 7 days
  amount of cells compared with control cultures: about equal amounts
BY2 suspension cells; 7 days in 1 mM, then sub-cultured to colchicine-free medium
  suspension cells seen as single intact cells: ~90%
BY2 suspension cells; BY2-Variant, 1 mM, 7 d
  cell viability (FDA and PI): high viability

## CCOC(=O)COc1nn(-c2ccccc2)c(-c2ccccc2)c1Cl [DAS-PMTI-1]
PH suspension cells
  recovery after subculture in the absence of the compound: recovered as single cells with a low frequency
Tobacco BY2 suspension; 20 nM, Medium A and Medium B, 7 days
  single cell production: produced single cells
Tobacco BY2 suspension; 1 uM, 3.5 days of culture, LSBY2 Glycerol medium
  cells with single nucleus with one or two nucleoli: 90%
BY2 cells
  concentration effective for the production of single cells: 5 to 25 nM
